Key:
DAPK2 = assay: KINOMEscan; settings: 50000 nM
Experimental: KINOMEscan™ selectivity screen
(§1) The assay was perfor med at DiscoveRx Corporation according the methods published previously5. Briefly, Kinase-tagged T7 phage strains were grown in parallel in an E. coli host derived from the BL21 strain. E. coli were grown to log-phase and infected with T7 phage from a frozen stock and incubated with shaking at 32°C until lysis (90-150 minutes). The kinases were produced in HEK-293 cells and subsequently tagged with DNA for qPCR detection. Streptavidin-coated magnetic beads were treated with biotinylated small molecule ligands to generate affinity resins for kinase
(§2) inhibitor or DMSO control was performed in polypropylene 384-well plates for 1 hr at room temperature. After wash with PBS buffer containing 0.05% Tween 20, the beads were incubated in elution buffer (PBS containing 0.05 % Tween 20 and 0.5 μM non-biotinylated affinity ligand) for 30 minutes at room temperature. The kinase concentration in the eluates was measured by qPCR.

RET(M918T) = assay: KINOMEscan; settings: 50000 nM
Experimental: KINOMEscan™ selectivity screen
as §1, §2

PKAC-alpha = assay: KINOMEscan; settings: 50000 nM
Experimental: KINOMEscan™ selectivity screen
(§3) Briefly, Kinase-tagged T7 phage strains were grown in parallel in an E. coli host derived from the BL21 strain. E. coli were grown to log-phase and infected with T7 phage from a frozen stock and incubated with shaking at 32°C until lysis (90-150 minutes). The kinases were produced in HEK-293 cells and subsequently tagged with DNA for qPCR detection. Streptavidin-coated magnetic beads were treated with biotinylated small molecule ligands to generate affinity resins for kinase
as §2

[1] = test system: TYK2(JH1domain-catalytic); assay: KINOMEscan; settings: 50000 nM
Experimental: KINOMEscan™ selectivity screen
as §1, §2

IGF1R = assay: KINOMEscan; settings: 50000 nM
Experimental: KINOMEscan™ selectivity screen
(§4) The assay was perfor med at DiscoveRx Corporation according the methods published previously5. […] The kinases were produced in HEK-293 cells and subsequently tagged with DNA for qPCR detection. Streptavidin-coated magnetic beads were treated with biotinylated small molecule ligands to generate affinity resins for kinase
as §2

LATS2 = assay: KINOMEscan; settings: 50000 nM
Experimental: KINOMEscan™ selectivity screen
as §3, §2

NEK2 = assay: KINOMEscan; settings: 50000 nM
Experimental: KINOMEscan™ selectivity screen
as §1, §2

[2] = test system: ABL1(Y253F)-phosphorylated; assay: KINOMEscan; settings: 50000 nM
Experimental: KINOMEscan™ selectivity screen
as §1, §2

NEK9 = assay: KINOMEscan; settings: 50000 nM
Experimental: KINOMEscan™ selectivity screen
as §1, §2

PIK3CA(Q546K) = assay: KINOMEscan; settings: 50000 nM
Experimental: KINOMEscan™ selectivity screen
as §3, §2

WNK1 = assay: KINOMEscan; settings: 50000 nM
Experimental: KINOMEscan™ selectivity screen
as §1, §2

CDK11 = assay: KINOMEscan; settings: 50000 nM
Experimental: KINOMEscan™ selectivity screen
as §1, §2

CAMK2G = assay: KINOMEscan; settings: 50000 nM
Experimental: KINOMEscan™ selectivity screen
as §1, §2

Akt = test system: T1, Akt; assay: In vitro phosphorylation of Akt T308 by PDK1; format: biochemical; settings: inactive Akt, PE/PC/PS/PIP3 vesicles
T1 construct: purchased Millipore 14-279

EPHA1 = assay: KINOMEscan; settings: 50000 nM
Experimental: KINOMEscan™ selectivity screen
as §1, §2

[3] = test system: ABL1(Q252H)-phosphorylated; assay: KINOMEscan; settings: 50000 nM
Experimental: KINOMEscan™ selectivity screen
as §1, §2

TSSK3 = assay: KINOMEscan; settings: 50000 nM
Experimental: KINOMEscan™ selectivity screen
as §1, §2

FLT3(D835V) = assay: KINOMEscan; settings: 50000 nM
Experimental: KINOMEscan™ selectivity screen
as §1, §2

PIM2 = assay: KINOMEscan; settings: 50000 nM
Experimental: KINOMEscan™ selectivity screen
as §1, §2

AMPK-alpha1 = assay: KINOMEscan; settings: 50000 nM
Experimental: KINOMEscan™ selectivity screen
as §1, §2

MYO3A = assay: KINOMEscan; settings: 50000 nM
Experimental: KINOMEscan™ selectivity screen
as §1, §2

ROCK2 = assay: KINOMEscan; settings: 50000 nM
Experimental: KINOMEscan™ selectivity screen
as §1, §2

BRSK2 = assay: KINOMEscan; settings: 50000 nM
Experimental: KINOMEscan™ selectivity screen
as §1, §2

MEK1 = assay: KINOMEscan; settings: 50000 nM
Experimental: KINOMEscan™ selectivity screen
as §3, §2

PRKD3 = assay: KINOMEscan; settings: 50000 nM
Experimental: KINOMEscan™ selectivity screen
as §1, §2

FGFR1 = assay: KINOMEscan; settings: 50000 nM
Experimental: KINOMEscan™ selectivity screen
as §1, §2

PRP4 = test system: T2, PRP4; assay: KINOMEscan; format: binding, human; settings: 50000 nM
T2 construct: purchased DiscoveRx KINOMEscan

MLK2 = assay: KINOMEscan; settings: 50000 nM
Experimental: KINOMEscan™ selectivity screen
as §1, §2

[4] = test system: ABL1(F317I)-nonphosphorylated; assay: KINOMEscan; settings: 50000 nM
Experimental: KINOMEscan™ selectivity screen
as §1, §2

CSNK1E = assay: KINOMEscan; settings: 50000 nM
Experimental: KINOMEscan™ selectivity screen
as §1, §2

TLK2 = assay: KINOMEscan; settings: 50000 nM
Experimental: KINOMEscan™ selectivity screen
as §3, §2

ZAP70 = assay: KINOMEscan; settings: 50000 nM
Experimental: KINOMEscan™ selectivity screen
as §3, §2

KIT(D816V) = assay: KINOMEscan; settings: 50000 nM
Experimental: KINOMEscan™ selectivity screen
as §1, §2

MEK6 = assay: KINOMEscan; settings: 50000 nM
Experimental: KINOMEscan™ selectivity screen
as §1, §2

BIKE = assay: KINOMEscan; settings: 50000 nM
Experimental: KINOMEscan™ selectivity screen
as §4, §2

PKN1 = assay: KINOMEscan; settings: 50000 nM
Experimental: KINOMEscan™ selectivity screen
as §1, §2

MST4 = assay: KINOMEscan; settings: 50000 nM
Experimental: KINOMEscan™ selectivity screen
as §4, §2

[5] = test system: RPS6KA5(Kin.Dom.2-C-terminal); assay: KINOMEscan; settings: 50000 nM
Experimental: KINOMEscan™ selectivity screen
Briefly, Kinase-tagged T7 phage strains were grown in parallel in an E. coli host derived from the BL21 strain. E. coli were grown to log-phase and infected with T7 phage from a frozen stock and incubated with shaking at 32°C until lysis (90-150 minutes). The kinases were produced in HEK-293 cells and subsequently tagged with DNA for qPCR detection.
After wash with PBS buffer containing 0.05% Tween 20, the beads were incubated in elution buffer (PBS containing 0.05 % Tween 20 and 0.5 μM non-biotinylated affinity ligand) for 30 minutes at room temperature. The kinase concentration in the eluates was measured by qPCR.

GCN2(Kin.Dom.2,S808G) = assay: KINOMEscan; settings: 50000 nM
Experimental: KINOMEscan™ selectivity screen
as §1, §2

FGFR3(G697C) = assay: KINOMEscan; settings: 50000 nM
Experimental: KINOMEscan™ selectivity screen
as §1, §2

PFTAIRE2 = assay: KINOMEscan; settings: 50000 nM
Experimental: KINOMEscan™ selectivity screen
as §1, §2

PIK3CA(H1047L) = assay: KINOMEscan; settings: 50000 nM
Experimental: KINOMEscan™ selectivity screen
as §1, §2

NEK3 = assay: KINOMEscan; settings: 50000 nM
Experimental: KINOMEscan™ selectivity screen
as §1, §2

MET(Y1235D) = assay: KINOMEscan; settings: 50000 nM
Experimental: KINOMEscan™ selectivity screen
as §3, §2

AAK1 = assay: KINOMEscan; settings: 50000 nM
Experimental: KINOMEscan™ selectivity screen
as §1, §2

CDK2 = assay: KINOMEscan; settings: 50000 nM
Experimental: KINOMEscan™ selectivity screen
as §3, §2

CDKL3 = assay: KINOMEscan; settings: 50000 nM
Experimental: KINOMEscan™ selectivity screen
as §3, §2

Oc1cc(-c2ccccc2)c2ccccc2n1 [G7, 4-phenylquinolin-2(1H)-one]
Percent Control (DAPK2): 83% | Percent Control (RET(M918T)): 70% | Percent Control (PKAC-alpha): 87% | Percent Control [1]: 72% | Percent Control (IGF1R): 76% | Percent Control (LATS2): 23% | Percent Control (NEK2): 77% | Percent Control [2]: 56% | Percent Control (NEK9): 80% | Percent Control (PIK3CA(Q546K)): 83% | Percent Control (WNK1): 97% | Percent Control (CDK11): 91% | Percent Control (CAMK2G): 81% | in vitro phosphorylation of T308 by PDK1 (Akt): impaired | Percent Control (EPHA1): 89% | Percent Control [3]: 33% | Percent Control (TSSK3): 95% | Percent Control (FLT3(D835V)): 7.6% | Percent Control (PIM2): 68% | Percent Control (AMPK-alpha1): 90% | Percent Control (MYO3A): 85% | Percent Control (ROCK2): 81% | Percent Control (BRSK2): 82% | Percent Control (MEK1): 69% | Percent Control (PRKD3): 89% | Percent Control (FGFR1): 56% | Percent Control (PRP4): 79% | Percent Control (MLK2): 100% | Percent Control [4]: 71% | Percent Control (CSNK1E): 15% | Percent Control (TLK2): 89% | Percent Control (ZAP70): 100% | Percent Control (KIT(D816V)): 58% | Percent Control (MEK6): 72% | Percent Control (BIKE): 52% | Percent Control (PKN1): 89% | Percent Control (MST4): 53% | Percent Control [5]: 93% | Percent Control (GCN2(Kin.Dom.2,S808G)): 99% | Percent Control (FGFR3(G697C)): 98% | Percent Control (PFTAIRE2): 81% | Percent Control (PIK3CA(H1047L)): 89% | Percent Control (NEK3): 68% | Percent Control (MET(Y1235D)): 59% | Percent Control (AAK1): 62% | Percent Control (CDK2): 88% | Percent Control (CDKL3): 89%
